Test results as given in ChEMBL document CHEMBL5154932, “Discovery of 1,6-Naphthyridin-2(1H)-one Derivatives as Novel, Potent, and Selective FGFR4 Inhibitors for the Treatment of Hepatocellular Carcinoma” (J Med Chem, 2022).

Key:
[1] = rat, in vivo, iv, 1 mg/kg
[2] = rat, in vivo, iv, 1 mg/kg; remark: listed apart in the source
[3] = rat, in vivo, iv, 1 mg/kg; remark: listed apart in the source
[4] = rat, in vivo, po, 10 mg/kg
[5] = in vitro; details: mouse, plasma
[6] = rat, in vivo, po, 10 mg/kg; remark: listed apart in the source
[7] = rat, in vivo, iv, 1 mg/kg; remark: listed apart in the source
[8] = in vitro; details: rat, plasma
[9] = rat, in vivo, iv, 1 mg/kg; remark: listed apart in the source
[10] = in vivo; details: Sprague-Dawley, rat, po, 10 mg/kg
[11] = rat, in vivo, po, 10 mg/kg; remark: listed apart in the source
[12] = in vitro; details: cynomolgus monkey, plasma
[13] = rat, in vivo, iv, 1 mg/kg; remark: listed apart in the source
[14] = in vitro; details: human, plasma
[15] = in vitro; details: beagle, dog, plasma
[16] = in vivo; details: Sprague-Dawley, rat, po, 10 mg/kg; remark: listed apart in the source
[17] = in vitro; details: human, liver microsomes
[18] = rat, in vivo, po, 10 mg/kg; remark: listed apart in the source
[19] = in vitro; details: mouse, liver microsomes
[20] = in vivo; details: Sprague-Dawley, rat, po, 10 mg/kg; remark: listed apart in the source
[21] = in vivo; details: Sprague-Dawley, rat, po, 10 mg/kg; remark: listed apart in the source
[22] = in vivo; details: Sprague-Dawley, rat, po, 10 mg/kg; remark: listed apart in the source
[23] = in vitro; details: rat, liver microsomes
[24] = in vitro; details: beagle, dog, liver microsomes
[25] = in vitro; details: cynomolgus monkey, liver microsomes
[26] = in vivo; details: Sprague-Dawley, rat, po, 10 mg/kg; remark: listed apart in the source

SMILES	t1/2 [1]	Vd [2]	AUCt [3]	half-life [5]	Cmax [7]	half-life [8]	MRT(t) [9]	bioavailability [10]	half-life [12]	CL [13]	half-life [14]	half-life [15]	MRT last [16]	half-life [17]	half-life [19]	further results
C=CC(=O)N[C@H]1CCOC[C@H]1Nc1ncc2cc(-c3c(Cl)c(OC)cc(OC)c3Cl)ccc2n1 [FISOGATINIB]	1 min	1.4 L/kg	1023.1 ng·h/mL	> 4.82 h	1161 ng/mL	> 4.82 h	1 h	79.7%	> 4.82 h	17 mL/min/kg	> 4.82 h	> 4.82 h	1.8 h	0.42 h	0.333 h	Cmax [4]: 2570.9 ng/mL; Tmax [6]: 0.5 h; t1/2 [11]: 1.2 min; AUCt [18]: 8155.2 ng·h/mL
CC#CC(=O)Nc1cc(-c2cc3c(cn2)cc(-c2c(Cl)c(OC)cc(OC)c2Cl)c(=O)n3CC)c(OC)cc1N1C[C@H]2C[C@@H]1CO2	2 min	1.1 L/kg	2609.6 ng·h/mL	3.33 h	1836.2 ng/mL	> 4.82 h	1.8 h	55.4%	> 4.82 h	6.7 mL/min/kg	4.77 h	> 4.82 h	2.4 h	0.668 h	0.735 h	half-life [20]: 2 min; Tmax [21]: 1.4 h; AUC(0-t) [22]: 14400 ng·h/mL; half-life [23]: 1.22 h; half-life [24]: 0.455 h; half-life [25]: 0.222 h; Cmax [26]: 3650 ng/mL
